Results published in ChEMBL document CHEMBL1201862, “PubChem BioAssay data set” (2004).
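Tested at 5 concentrations; 48 h exposure; 96-well plates; endpoints linearly interpolated, else capped at highest concentration. GI50 = concentration required for 50% inhibition of growth.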 Calls of active or inactive are those of the source. Cut-off read from the data, not from the text of the source: active = GI50 up to about 1.1 µM and inactive = higher.

Columns and labels:
Assay in all cases: NCI anticancer screen, dose series, 48 h
[1] = test system: SK-MEL-2
[2] = test system: NCI-H460
[3] = test system: DMS-114
[4] = test system: HCC 2998
[5] = test system: CAKI-1
[6] = test system: OVCAR-3
[7] = test system: HL-60
[8] = test system: HCT-116
[9] = test system: UACC-257
[10] = test system: IGROV-1
[11] = test system: SK-MEL-28
[12] = test system: HT-29
[13] = test system: KM12
[14] = test system: Malme-3M
[15] = test system: LXFL 529
[16] = test system: MOLT-4
[17] = test system: A549
[18] = test system: UACC-62
[19] = test system: Hs-578T
[20] = test system: NCI/ADR-RES

Measured: GI50

C=C1C(=O)OC2C1CC[C@H](C)C13OC(=O)CC1[C@@]23C (stereo not given in full)
inactive: [1] > 100 µM | [2] > 100 µM | [3] > 100 µM | [4] > 100 µM | [5] > 100 µM | [6] > 100 µM | [7] > 100 µM | [8] > 100 µM | [9] > 100 µM | [10] > 100 µM | [11] > 100 µM | [12] > 100 µM | [13] > 100 µM | [14] > 100 µM | [15] > 100 µM | [16] > 100 µM | [17] > 100 µM | [18] > 100 µM

O=C1CCC(C(=O)O)C2=C1CCCC2 (stereo not given)
inactive: [1] > 100 µM | [3] > 100 µM | [4] > 100 µM | [5] > 100 µM | [6] > 100 µM | [7] > 100 µM | [8] > 100 µM | [9] > 100 µM | [10] > 100 µM | [11] > 100 µM | [12] > 100 µM | [13] > 35.6 µM | [14] > 100 µM | [15] > 100 µM | [19] > 100 µM | [16] > 100 µM | [17] > 34 µM | [18] > 100 µM | [20] > 100 µM

COC(=O)C1CC2c3c(c4ccccc4n3C)CC(C1=O)N2C (stereo not given)
inactive: [1] > 100 µM | [2] 45.3 µM | [3] 21.2 µM | [4] 34.8 µM | [5] 43.5 µM | [6] 34.8 µM | [7] 27.3 µM | [8] 33 µM | [9] 32.8 µM | [10] 52.8 µM | [11] 51.9 µM | [12] 42.1 µM | [13] 37.8 µM | [14] 43.9 µM | [15] 39 µM | [16] 29 µM | [17] 36.4 µM | [18] 49.5 µM
